Values quoted from earlier work in patent US20070212431A1, “Cream for treatment of skin injured by the sun” (priority 2001, published 2007).

What was measured:
[1] = topical application to the skin
photodamaged skin = settings: controlled studies (Q-10); open uncontrolled clinical study (lipoic acid)
[2] = applied to the skin in ethyl alcohol solution, after penetrating the horny layer

time until found in the dermis [1]	share reaching the dermis [2]	share reaching the living part of epidermis [2]	SMILES	effect on photodamaged skin (photodamaged skin)
≤ 4 h	–	–	O=C(O)CCCCC1CCSS1 (racemic) [lipoic acid, d,l-α-lipoic acid]	shown to have an effect on photodamaged skin to a certain extent
–	~2%	about 20%	COC1=C(OC)C(=O)C(C/C=C(\C)CC/C=C(\C)CC/C=C(\C)CC/C=C(\C)CC/C=C(\C)CC/C=C(\C)CC/C=C(\C)CC/C=C(\C)CC/C=C(\C)CCC=C(C)C)=C(C)C1=O [Q-10, coenzyme Q-10]	to some extent has been shown to have an effect
